In experiment [1] the target is Cannabinoid receptor 1 (Homo sapiens, UniProt P21554). Type of experiment: cell membranes, Membrane. The settings on record: chem-1. Further: in other assays of this panel Not Active means under 50% inhibition at 10 µM.
Experiment [2] addresses T1, Adenosine receptor A3 (Homo sapiens, UniProt P0DMS8).
T1 sequence (P0DMS8 whole entry): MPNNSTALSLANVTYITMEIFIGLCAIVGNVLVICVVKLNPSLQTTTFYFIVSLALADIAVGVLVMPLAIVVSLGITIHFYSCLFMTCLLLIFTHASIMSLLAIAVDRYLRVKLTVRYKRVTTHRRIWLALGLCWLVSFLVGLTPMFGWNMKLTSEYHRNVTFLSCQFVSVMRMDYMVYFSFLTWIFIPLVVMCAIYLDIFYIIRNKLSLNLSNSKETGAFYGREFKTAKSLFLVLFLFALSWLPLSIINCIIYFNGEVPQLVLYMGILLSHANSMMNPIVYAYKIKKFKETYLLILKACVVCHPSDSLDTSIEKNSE
In kind it is cell membranes, CHO-K1, Membrane.

Experiment [3] in a line: DRUGMATRIX: Calcium Channel Type L, Phenylalkylamine radioligand binding (ligand: [3H] (-)-Desmethoxyverapamil (D-888)). Type of experiment: cell membranes, Rattus norvegicus, Wistar, Brain, Membrane. As to conditions: Not Active = under 50% inhibition at 10 µM.
A short description of experiment [4]: DRUGMATRIX: Calcium Channel Type L, Benzothiazepine radioligand binding (ligand: [3H] Diltiazem). Type of experiment: cell membranes, Rattus norvegicus, Wistar, Brain, Membrane. As to conditions: Not Active = under 50% inhibition at 10 µM.
A short description of experiment [5]: DRUGMATRIX: Glutamate, AMPA radioligand binding (ligand: [3H] AMPA). In kind it is cell membranes, Rattus norvegicus, Wistar, Cerebral cortex, Membrane. As to conditions: Not Active = under 50% inhibition at 10 µM.
Experiment [6] deals with Mitogen-activated protein kinase 14 (Homo sapiens, UniProt Q16539). Also noted: species or system Escherichia coli.
Chain of Mitogen-activated protein kinase 14 (Q16539 whole entry): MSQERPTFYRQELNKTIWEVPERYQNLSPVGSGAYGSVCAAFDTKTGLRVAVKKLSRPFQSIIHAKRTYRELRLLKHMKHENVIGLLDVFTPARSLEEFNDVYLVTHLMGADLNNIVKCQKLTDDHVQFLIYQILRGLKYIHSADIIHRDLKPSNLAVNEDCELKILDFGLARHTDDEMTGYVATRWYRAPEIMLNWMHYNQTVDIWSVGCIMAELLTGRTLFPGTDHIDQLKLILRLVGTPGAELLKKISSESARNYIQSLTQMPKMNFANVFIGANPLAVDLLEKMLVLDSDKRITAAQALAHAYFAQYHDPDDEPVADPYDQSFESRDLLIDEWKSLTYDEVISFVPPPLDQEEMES

Chain of Cannabinoid receptor 1 (P21554 whole entry): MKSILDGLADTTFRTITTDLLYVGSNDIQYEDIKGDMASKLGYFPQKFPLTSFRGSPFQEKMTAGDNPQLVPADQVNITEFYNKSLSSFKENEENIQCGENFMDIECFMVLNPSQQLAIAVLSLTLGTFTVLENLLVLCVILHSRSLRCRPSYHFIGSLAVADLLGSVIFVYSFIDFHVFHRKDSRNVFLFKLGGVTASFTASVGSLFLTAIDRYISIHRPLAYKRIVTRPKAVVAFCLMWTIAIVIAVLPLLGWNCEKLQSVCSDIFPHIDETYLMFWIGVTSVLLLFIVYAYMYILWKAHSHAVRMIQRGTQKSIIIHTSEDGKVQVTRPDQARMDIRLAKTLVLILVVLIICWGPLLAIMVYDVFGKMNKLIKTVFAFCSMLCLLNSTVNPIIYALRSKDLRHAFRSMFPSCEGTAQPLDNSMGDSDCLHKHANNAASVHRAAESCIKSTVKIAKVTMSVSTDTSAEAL

For `Nn1nnc2ccccc21`, the IC50 result in experiment [1], in experiment [2] (cho-k1), in experiment [3], in experiment [4], in experiment [5] and in experiment [6] was “Not Active” throughout. Moreover, the Ki result in experiment [3], in experiment [4] and in experiment [5] was “Not Active” in each case.

For the compound `CC[C@]1(O)CC[C@H]2[C@@H]3CCC4=CCCC[C@@H]4[C@H]3CC[C@@]21C`, the IC50 result in experiment [1], in experiment [2] (cho-k1), in experiment [3], in experiment [4], in experiment [5] and in experiment [6] was “Not Active” in each case. In addition, the Ki entry in experiment [3], in experiment [4] and in experiment [5] was “Not Active” each time.

As to `N[C@@H](Cc1ccc(F)cc1)C(=O)O`, the IC50 result in experiment [1], in experiment [2] (cho-k1), in experiment [3], in experiment [4], in experiment [5] and in experiment [6] was “Not Active” each time. Also, the Ki entry in experiment [3], in experiment [4] and in experiment [5] was “Not Active” each time.

`CCOC(=O)[C@H](CCc1ccccc1)N[C@@H](C)C(=O)N1Cc2ccccc2C[C@H]1C(=O)O`: the IC50 result in experiment [1], in experiment [2] (cho-k1), in experiment [3], in experiment [4], in experiment [5] and in experiment [6] was “Not Active” each time. Further, the Ki entry in experiment [3], in experiment [4] and in experiment [5] was “Not Active” in each case.

Consider `O=C(c1ccccc1Cl)N1CCC(Cc2ccccc2)CC1`, for which the IC50 entry in experiment [1] is “Not Active”; in experiment [2] (cho-k1) it was “Not Active”; in experiment [3], “Not Active”; in experiment [4], “Not Active”; in experiment [5], “Not Active”; in experiment [6] (read-out: IC50), 833 nM. Besides, the Ki entry in experiment [3], in experiment [4] and in experiment [5] was “Not Active” in each case.

In the case of `CCOC(=O)[C@H](CCc1ccccc1)N[C@@H](C)C(=O)N1CCC[C@H]1C(=O)O`, the IC50 entry in experiment [1], in experiment [2] (cho-k1), in experiment [3], in experiment [4], in experiment [5] and in experiment [6] was “Not Active” in each case. The Ki result in experiment [3], in experiment [4] and in experiment [5] was “Not Active” in each case.

Take `Clc1cc2c(cc1Cl)Oc1cc(Cl)c(Cl)cc1O2` [2,3,7,8-TETRACHLORODIBENZO-P-DIOXIN]: the IC50 result in experiment [1], in experiment [2] (cho-k1), in experiment [3], in experiment [4], in experiment [5] and in experiment [6] was “Not Active” in each case. Also, the Ki result in experiment [3], in experiment [4] and in experiment [5] was “Not Active” throughout.

With `C=C1/C(=C\C=C2/CCC[C@]3(C)[C@@H]([C@H](C)CCCC(C)C)CC[C@@H]23)C[C@@H](O)C[C@@H]1O` [ALFACALCIDOL], the IC50 entry in experiment [1], in experiment [2] (cho-k1), in experiment [3], in experiment [4], in experiment [5] and in experiment [6] was “Not Active” throughout. Also, the Ki result in experiment [3], in experiment [4] and in experiment [5] was “Not Active” in each case.

With `CCCCCC[C@H]1C(=O)O[C@H](C)[C@H](NC(=O)c2cccc(NC=O)c2O)C(=O)O[C@@H](C)[C@@H]1OC(=O)CC(C)C` [ANTIMYCIN A], the IC50 entry in experiment [1], in experiment [2] (cho-k1), in experiment [3], in experiment [4], in experiment [5] and in experiment [6] was “Not Active” in each case. Besides, the Ki entry in experiment [3], in experiment [4] and in experiment [5] was “Not Active” each time.

Take `C[C@@H]1CC[C@H]2[C@@H](C)C(=O)O[C@@H]3O[C@@]4(C)CC[C@@H]1[C@]32OO4` [ARTEMISININ]: the IC50 entry in experiment [1], in experiment [2] (cho-k1), in experiment [3], in experiment [4], in experiment [5] and in experiment [6] was “Not Active” in each case. The Ki entry in experiment [3], in experiment [4] and in experiment [5] was “Not Active” each time.

`CO[C@H]1[C@@H](O)[C@H](N)[C@@H](O[C@H]2O[C@H]([C@H](C)N)CC[C@H]2N)[C@H](O)[C@@H]1N(C)C(=O)CN` [ASTROMICIN]: the IC50 result in experiment [1], in experiment [2] (cho-k1), in experiment [3], in experiment [4], in experiment [5] and in experiment [6] was “Not Active” each time. The Ki result in experiment [3], in experiment [4] and in experiment [5] was “Not Active” in each case.

Take `[N-]=[N+]=CC(=O)OC[C@H](N)C(=O)O` [AZASERINE]: the IC50 entry in experiment [1], in experiment [2] (cho-k1), in experiment [3], in experiment [4], in experiment [5] and in experiment [6] was “Not Active” each time. In addition, the Ki result in experiment [3], in experiment [4] and in experiment [5] was “Not Active” in each case.

Turning to `CC[C@H]1OC(=O)[C@H](C)[C@@H](O[C@H]2C[C@@](C)(OC)[C@@H](O)[C@H](C)O2)[C@H](C)[C@@H](O[C@@H]2O[C@H](C)C[C@H](N(C)C)[C@H]2O)[C@](C)(O)C[C@@H](C)CN(C)[C@H](C)[C@@H](O)[C@]1(C)O` [AZITHROMYCIN], the IC50 entry in experiment [1], in experiment [2] (cho-k1), in experiment [3], in experiment [4], in experiment [5] and in experiment [6] was “Not Active” throughout. In addition, the Ki result in experiment [3], in experiment [4] and in experiment [5] was “Not Active” throughout.

With `CC(C)(C)c1ccc(S(=O)(=O)/C=C/C#N)cc1` [BAY-11-7085], the IC50 result in experiment [1], in experiment [2] (cho-k1), in experiment [3], in experiment [4], in experiment [5] and in experiment [6] was “Not Active” each time. The Ki result in experiment [3], in experiment [4] and in experiment [5] was “Not Active” in each case.

On to `CCc1oc2ccccc2c1C(=O)c1cc(Br)c(O)c(Br)c1` [BENZBROMARONE], for which the IC50 entry is “Not Active” in experiment [1]; 5.22 µM in experiment [2] (read-out: IC50); “Not Active” in experiment [3]; “Not Active” in experiment [4]; “Not Active” in experiment [5]; 1240 nM in experiment [6] (read-out: IC50). Moreover, the Ki in experiment [2] (read-out: Ki) was 2950 nM; in experiment [3] it was “Not Active”; in experiment [4] it was “Not Active”; in experiment [5], “Not Active”.

`O=c1cc(-c2ccccc2)oc2ccc3ccccc3c12` [BETA-NAPHTHOFLAVONE]: the IC50 result in experiment [1], in experiment [2] (cho-k1), in experiment [3], in experiment [4], in experiment [5] and in experiment [6] was “Not Active” each time. For the same compound, the Ki entry in experiment [3], in experiment [4] and in experiment [5] was “Not Active” each time.

`CC(C)C[C@H]1C(=O)N2CCC[C@H]2[C@]2(O)O[C@](NC(=O)[C@@H]3C=C4c5cccc6[nH]c(Br)c(c56)C[C@H]4N(C)C3)(C(C)C)C(=O)N12` [BROMOCRIPTINE]: the IC50 entry in experiment [1], in experiment [2] (cho-k1), in experiment [3], in experiment [4], in experiment [5] and in experiment [6] was “Not Active” throughout. The Ki entry in experiment [3], in experiment [4] and in experiment [5] was “Not Active” throughout.

As for `CS(=O)(=O)OCCCCOS(C)(=O)=O` [BUSULFAN], the IC50 result in experiment [1], in experiment [2] (cho-k1), in experiment [3], in experiment [4], in experiment [5] and in experiment [6] was “Not Active” throughout. The Ki result in experiment [3], in experiment [4] and in experiment [5] was “Not Active” throughout.

Consider `CN1C[C@H](C(=O)N[C@]2(C)O[C@@]3(O)[C@@H]4CCCN4C(=O)[C@H](Cc4ccccc4)N3C2=O)C[C@@H]2c3cccc4[nH]cc(c34)C[C@H]21` [DIHYDROERGOTAMINE], for which the IC50 result in experiment [1], in experiment [2] (cho-k1), in experiment [4], in experiment [5] and in experiment [6] was “Not Active” throughout. Besides, the Ki entry in experiment [4] and in experiment [5] was “Not Active” each time.

As for `Cc1cnc(C(=O)NCCc2ccc(S(=O)(=O)NC(=O)NC3CCCCC3)cc2)cn1` [GLIPIZIDE], the IC50 result in experiment [1], in experiment [2] (cho-k1), in experiment [3], in experiment [4] and in experiment [5] was “Not Active” each time. For the same compound, the Ki result in experiment [3], in experiment [4] and in experiment [5] was “Not Active” in each case.

Values taken from ChEMBL document CHEMBL1909046, “DrugMatrix in vitro pharmacology data”.
